Key:
[1] = test system: cat fleas (Ctenocephalides felis); assay: control of flea on cat; format: in vivo; details: cats, 20 mg/kg, 30 mg/mL in 1:1 dimethyl sulfoxide/corn oil; counts versus placebo at 1, 9, 16, 23, 30 days; satisfactory in any of the three areas, for a period ranging from eight to thirty days
Text: (§1) Cats are only infested with fleas.

[2] = test system: ticks (Rhipicephalus sanguineus); assay: control of tick on dog; format: in vivo; details: dogs, 10 mg/kg, 30 mg/mL in 1:1 dimethyl sulfoxide/corn oil; counts versus placebo at 1, 9, 16, 23, 30 days; satisfactory in any of the three areas, for a period ranging from eight to thirty days
Text: as §1

[3] = test system: cat fleas (Ctenocephalides felis); assay: control of flea on dog; format: in vivo; details: dogs, 10 mg/kg, 30 mg/mL in 1:1 dimethyl sulfoxide/corn oil; counts versus placebo at 1, 9, 16, 23, 30 days; satisfactory in any of the three areas, for a period ranging from eight to thirty days
Text: as §1

[4] = side-effects in treated dogs and cats; details: dogs 10 mg/kg, cats 20 mg/kg; period ranging from eight to thirty days
Procedure: The compounds 1-(2,6-dichloro-4-trifluoromethylphenyl)-3-cyano-4-trifluromethylthio-5-hydroxypyrazole, 1-(2,6-dichloro-4-trifluoromethylphenyl)-3-cyano-4-trifluoromethylsulfinyl-5-hydroxypyrazole and 1-(2,6-dichloro-4-trifluoromethylphenyl)-3-cyano-4-trifluoromethylsulfonyl-5-hydroxypyrazole are formulated as 30 mg/mL formulations in a 1:1 volume/volume solution of dimethyl sulfoxide and corn oil. Using this formulation, mixed breed dogs and cats are treated at a rate of 10 mg of the compound per kg (mg/kg)of body weight of the dog and 20 mg/kg of the cat treated. The animals are fasted for at least 8 hours prior to treatment, fed half of the daily ration immediately prior to treatment, then allowed access to the remainder of the daily ration immediately following treatment.
All dogs are infested with cat fleas (Ctenocephalides felis) and with ticks (Rhipicephalus sanguineus) 1 day prior to administration of the compound. Cats are only infested with fleas. […] At 1, 9, 16, 23 and 30 days after treatment the control of fleas and ticks in treated dogs and cats is determined versus a group of infested dogs and cats which receive a placebo consisting of a 1:1 volume/volume solution of dimethyl sulfoxide and corn oil. To determine the efficacies of the compounds, the arthropods are combed from the animnals and counted.

SMILES | control of flea on cat [1] | control of tick on dog [2] | control of flea on dog [3] | side-effect [4]
N#Cc1nn(-c2c(Cl)cc(C(F)(F)F)cc2Cl)c(O)c1SC(F)(F)F [Compound 1-1, 1-(2,6-dichloro-4-trifluoromethylphenyl)-3-cyano-4-trifluoromethylsulfenyl-5-hydroxypyrazole] | Satisfactory results | Satisfactory results | Satisfactory results | 
N#Cc1nn(-c2c(Cl)cc(C(F)(F)F)cc2Cl)c(O)c1[S+]([O-])C(F)(F)F (centres unmarked) [Compound 1-3, 1-(2,6-dichloro-4-trifluoromethylphenyl)-3-cyano-4-trifluoromethylsulfinyl-5-hydroxypyrazole] | Satisfactory results | Satisfactory results | Satisfactory results | 
N#Cc1nn(-c2c(Cl)cc(C(F)(F)F)cc2Cl)c(O)c1S(=O)(=O)C(F)(F)F [Compound 1-5, 1-(2,6-dichloro-4-trifluoromethylphenyl)-3-cyano-4-trifluoromethylsulfonyl-5-hydroxypyrazole] | Satisfactory results | Satisfactory results | Satisfactory results | 
N#Cc1nn(-c2c(Cl)cc(C(F)(F)F)cc2Cl)c(O)c1SC(F)(F)Cl [Compound 1-9, 1-(2,6-dichloro-4-trifluoromethylphenyl)-3-cyano-4-chlorodifluoromethylsulfenyl-5-hydroxypyrazole] | Satisfactory results | Satisfactory results | Satisfactory results | without any significant side-effect
CCOc1c(SC(F)(F)F)c(C#N)nn1-c1c(Cl)cc(C(F)(F)F)cc1Cl [Compound 3-1, 1-(2,6-dichloro-4-trifluoromethylphenyl)-3-cyano-4-trifluoromethylsulfenyl-5-ethoxypyrazole] | Satisfactory results | Satisfactory results | Satisfactory results | 
CC(C)(C)C(=O)Oc1c(SC(F)(F)F)c(C#N)nn1-c1c(Cl)cc(C(F)(F)F)cc1Cl [Compound 3-10, 1-(2,6-dichloro-4-trifluoromethylphenyl)-3-cyano-4-trifluoromethylsulfenyl-5-trimethylacetoxypyrazole] | Satisfactory results | Satisfactory results | Satisfactory results | 
CN(C)C(=O)Oc1c(S(=O)(=O)C(F)(F)F)c(C#N)nn1-c1c(Cl)cc(C(F)(F)F)cc1Cl [Compound 19-1, 1-(2,6-dichloro-4-trifluorometylphenyl) -3-cyano-4-trifluormethylsulfonyl-5-N,N-dimethylcarbamyloxypyrazole] | Satisfactory results | Satisfactory results | Satisfactory results | without any significant side-effect
